In patent US5637591A, “Antimicrobial and anticollagenase activity of phenazine-5, 10-dioxide and derivatives” (Fuji ImmunoPharmaceuticals Corp., priority 1995, dated 1997):
Values after ≈ are worked out from the molar mass of the structure shown. Like-named read-outs stand apart in the source and are kept apart here.

Legend:
[1] = system: Porphyromonas gingivalis RB-22D-1; assay: anaerobic liquid culture growth inhibition, OD 650 nm; type: cell-based
[2] = system: Fusobacterium nucleatum; assay: as above; type: cell-based; conditions: read-out: IC50 Fusobacterium nucleatum
[3] = system: Bacteroides fragilis; assay: as above; type: cell-based; conditions: read-out: IC50 Bacteroides fragilis
[4] = system: Porphyromonas gingivalis 2561; assay: as above; type: cell-based
[5] = system: Fusobacterium necrophorum; assay: as above; type: cell-based; conditions: read-out: IC50 Fusobacterium necrophorum
[6] = system: P. gingivalis strain 2561; assay: minimum inhibitory concentration by addition to plating medium; type: cell-based; conditions: for MIC: Porphyromonas gingivalis, 2561, 168 h
Protocol: (§1) Solutions of the agents were tested for activity against Escherichia coli strain DH5α by a zone inhibition method, and against P. gingivalis strain 2561 by addition to plating medium to determine minimum inhibitory concentrations (M/C). For the zone inhibition study, a suspension of E. coli was spread on the surface of an agar plate. A 3 mm diameter paper disk was placed on the seeded agar surface, and 10 μl of solution of each compound formulated at 1 mg/ml was added to the disk. Plates were incubated overnight at 37° C. The radius of the zone of inhibition was measured from the center of the disk to the edge of the E. coli bacterial lawn. For determination of MIC, drug solutions were mixed with plating medium to produce a range of final drug concentrations. Media with drug were plated in the wells of 24-well plates. A drop of bacterial suspension containing 2-5×10^2 CFU P. gingivalis was placed on each well. Plates were incubated 1 week in an anaerobic chamber at 37° C.

[7] = system: Escherichia coli strain DH5α; assay: zone inhibition method on agar plate; type: cell-based; conditions: 10 μl of 1 mg/ml on 3 mm paper disk, overnight 37° C., radius from center of disk; for zone of inhibition at 1000 µg/mL: Escherichia coli, read-out: E. coli Clear Zone
Protocol: as §1

[8] = system: Peptostreptococcus anaerobius; assay: anaerobic liquid culture growth inhibition, OD 650 nm; type: cell-based; conditions: read-out: IC50 Peptostreptococcus anaerobius
[9] = system: Bacteroides levii; assay: as above; type: cell-based; conditions: Porphyromonas levii, read-out: IC50 Bacteroides levii
[10] = system: Clostridium perfringens; assay: microbe, parasite or virus in culture; type: cell-based; conditions: read-out: IC50 Clostridium perfringens
[11] = system: P. gingivalis; assay: bone loss after oral colonization with P. gingivalis in mice, systemic administration; type: in vivo, BALB/c mice
Protocol: An animal model for testing the antimicrobial activity of the invention against P. gingivalis was conducted by inducing oral colonization of the microbe in BALB/c mice. Drug (2-methylphenazine-5,10-dioxide or Tetracycline) or control (2.5% cyclodextran) was administered intraperitoneally once each day for 25 days (2-methylphenazine-5,10-dioxide) or 40 days (Tetracycline). On the day following the last dose administration, the rear molars of the mice were swabbed and the swabs incubated in a growth medium to assess the presence of P. gingivalis. Mice were then sacrificed and jaw bones harvested for evaluation of bone loss.

[12] = system: purified collagenase from P. gingivalis; assay: anti-collagenase activity, 3H-collagen hydrolysis; type: biochemical; conditions: for % Inhibition of collagenase: 24 h at 25° C.
Protocol: Collagenase activity in the presence of the preferred compound 2-aminophenazine-5,10-dioxide and in the presence of Tetracycline were measured by incubating ^3 H-collagen with purified collagenase from P. gingivalis using increasing drag concentrations. After 24 h at 25° C., unhydrolyzed collagen fibers were removed from the mixture by centrifugation, and the specific activity of ^3 H in the supernatant quantified as a measure of hydrolyzed collagen. Percent inhibition was determined by subtracting the value in the presence of test compound from the control value, then dividing this quantity by the control value [(control-compound)/control×100].

[13] = system: anaerobic bacterial species; assay: anaerobic liquid culture growth inhibition, whole panel; type: cell-based; conditions: all species of Table 4; read-out: susceptibilities (IC50) of the various anaerobic species
Protocol: The concentrations of the various preferred substituted phenazine-5,10-dioxide compounds necessary to inhibit growth by 50% (IC50 values) were determined for a variety of anaerobic bacterial species. Compounds were individually diluted into liquid growth media, which along with suspensions of bacterial monocultures were added to the wells of 96-well plates. Cultures were incubated anaerobically overnight, and growth was assessed by measuring optical density at 650 nm. IC50 values were determined as the compound concentration producing a turbidity reading equal to 50% of the maximum. Again, results with Tetracycline are shown for comparison.

[14] = system: A. act and/or P. gin; conditions: background summary; cited from earlier work
[15] = RB22D1, anaerobic overnight, OD 650 nm, read-out: IC50 Porphyromonas gingivalis RB-22D-1
[16] = Porphyromonas gingivalis, 2561, anaerobic overnight, OD 650 nm, read-out: IC50 Porphyromonas gingivalis 2561
[17] = MIC on a molar basis, read-out: P. gingivalis MIC
[18] = complete inhibition of growth, 1 week anaerobic, 37° C., read-out: P. gingivalis MIC

| SMILES | IC50 [1, 15] [µg/mL] | IC50 ([2]; anaerobic overnight, OD 650 nm) [µg/mL] | IC50 ([3]; anaerobic overnight, OD 650 nm) [µg/mL] | IC50 [4, 16] [µg/mL] | IC50 ([5]; anaerobic overnight, OD 650 nm) [µg/mL] | MIC [6, 17] [µM] | MIC [6, 18] [µg/mL] | zone of inhibition at 1000 µg/mL [7] [mm] | IC50 ([8]; anaerobic overnight, OD 650 nm) [µg/mL] | IC50 ([9]; anaerobic overnight, OD 650 nm) [µg/mL] | IC50 [10] [µg/mL] | Activity against A. act and/or P. gin [14] | other results |
| --- | --- | --- | --- | --- | --- | --- | --- | --- | --- | --- | --- | --- | --- |
| [O-][n+]1c2ccccc2[n+]([O-])c2cc(O)ccc21 [2-hydroxyphenazine-5,10-dioxide] | 0.22 (≈ 0.964 µM) | > 10 | 5 (≈ 21.9 µM) | 0.62 (≈ 2.72 µM) | 0.45 (≈ 1.97 µM) | 0.07 | 0.016 | 15 | 0.45 (≈ 1.97 µM) | 0.2 (≈ 0.876 µM) | 1 (≈ 4.38 µM) |  | concentration range of activity against P. gingivalis ([6]; molar basis): nanomolar concentration range |
| CN(C)[C@@H]1C(O)=C(C(N)=O)C(=O)[C@@]2(O)C(O)=C3C(=O)c4c(O)cccc4[C@@](C)(O)[C@H]3C[C@@H]12 [Tetracycline, reference compound] |  |  |  |  |  |  |  | 10 |  |  | 0.06 (≈ 0.135 µM) |  | IC50 ([1]; RB22D1, read-out: IC50 Porphyromonas gingivalis RB-22D-1): 0.06 µg/mL (≈ 0.135 µM); Bone Loss (BLU) Average ± SD ([11]; Bacterial Infection, 5 mg/kg intraperitoneally once each day × 40 d, 0.33 mm = 1 BLU): 7.21 ± 0.73 BLU; effect of treatment on bone loss ([11]; infected mice, IP daily, 25 d (2-methylphenazine-5,10-dioxide) or 40 d (Tetracycline)): did not effect the bone loss; % Inhibition of collagenase ([12]; 1 μg/ml): 7.6%; % Inhibition of collagenase ([12]; 10 μg/ml): 31%; % Inhibition of collagenase ([12]; 100 μg/ml): 68%; anti-collagenase IC50 ([12]; estimated from Table 5): about 56 μg/ml; IC50 [2]: 0.16 µg/mL (≈ 0.36 µM); IC50 [3]: 0.1 µg/mL (≈ 0.225 µM); IC50 ([4]; Porphyromonas gingivalis, 2561, read-out: IC50 Porphyromonas gingivalis 2561): 0.02 µg/mL (≈ 0.045 µM); IC50 [5]: 0.03 µg/mL (≈ 0.0675 µM); IC50 [13]: ≤ 0.1 µg/mL; MIC ([6]; read-out: P. gingivalis MIC): 0.5 µg/mL; MIC ([6]; read-out: P. gingivalis MIC (μM)): 1.13 µM; IC50 [8]: 0.03 µg/mL (≈ 0.0675 µM); IC50 [9]: 0.1 µg/mL (≈ 0.225 µM) |
| [O-][n+]1c2ccccc2[n+]([O-])c2c3cccnc3c(O)cc21 [2-hydroxy-3,4-iminopropylphenazine-5,10-dioxide] | 0.18 (≈ 0.645 µM) | > 10 | 1 (≈ 3.58 µM) | 0.08 (≈ 0.286 µM) | 6.5 (≈ 23.3 µM) | 0.112 | 0.031 | 17 | 0.1 (≈ 0.358 µM) | 2 (≈ 7.16 µM) | 0.1 (≈ 0.358 µM) |  |  |
| [O-][n+]1c2ccccc2[n+]([O-])c2cc(O)c(O)cc21 [2,3-dihydroxyphenazine-5,10-dioxide] | 2 (≈ 8.19 µM) | > 10 | > 10 | 5 (≈ 20.5 µM) | > 10 |  |  |  | > 10 | > 10 | > 10 |  | antimicrobial activity against P. gingivalis [6]: inactive; P. gingivalis MIC (μM) ([6]; MIC on a molar basis): inactive; P. gingivalis MIC ([6]; complete inhibition of growth, 1 week anaerobic, 37° C.): inactive; E. coli Clear Zone [7]: inactive |
| CC1(C)S[C@@H]2[C@H](NC(=O)[C@H](N)c3ccc(O)cc3)C(=O)N2[C@H]1C(=O)O [Amoxicillin] |  |  |  |  |  |  |  |  |  |  |  | ineffective |  |
| [O-][n+]1c2ccccc2[n+]([O-])c2ccccc21 [phenazine-5,10-dioxide] |  | 3.5 (≈ 16.5 µM) | 3 (≈ 14.1 µM) |  | 0.45 (≈ 2.12 µM) | 0.296 | 0.063 | 19 | 0.2 (≈ 0.942 µM) | 2.5 (≈ 11.8 µM) | 1 (≈ 4.71 µM) |  |  |
| CC1(C)S[C@@H]2[C@H](NC(=O)Cc3ccccc3)C(=O)N2[C@H]1C(=O)O [Penicillin G] |  |  |  |  |  |  |  |  |  |  |  | ineffective |  |
| Cc1ncc([N+](=O)[O-])n1CCO [Metronidazole] |  |  |  |  |  |  |  |  |  |  |  | ineffective |  |
| COc1ccc2c(c1)[n+]([O-])c1ccc(N)cc1[n+]2[O-] [2-amino-7-methoxyphenazine-5,10-dioxide, 2-amino,7-methoxyphenazine-5,10-dioxide] | 0.08 (≈ 0.311 µM) |  |  | 0.015 (≈ 0.0583 µM) |  |  |  |  |  |  |  |  |  |
